Assay [1] concerns the target Fibroblast growth factor receptor 3 (Homo sapiens) (UniProt P22607). In words: Inhibition of human FGFR3 assessed as residual activity at 1 uM using PolyEY as substrate in presence of 33P-ATP by ProQinase assay relative to control.
Assay [2] deals with Fibroblast growth factor receptor 2 (Homo sapiens) (UniProt P21802). Briefly: Inhibition of human FGFR2 assessed as residual activity at 1 uM using PolyEY as substrate in presence of 33P-ATP by ProQinase assay relative to control.
Assay [3] concerns the target Serine/threonine-protein kinase Nek9 (Homo sapiens) (UniProt Q8TD19). In words: Inhibition of human NEK9 assessed as residual activity at 1 uM using RBER-GSK3 as substrate in presence of 33P-ATP by ProQinase assay relative to control.
Assay [4] has as its target Serine/threonine-protein kinase D2 (Homo sapiens) (UniProt Q9BZL6). In words: Inhibition of human PRKD2 assessed as residual activity at 1 uM using RBER-CHKtide as substrate in presence of 33P-ATP by ProQinase assay relative to control.
Assay [5] has as its target T1, Phosphorylase b kinase gamma catalytic chain, liver/testis isoform (Homo sapiens) (UniProt P15735).
T1 sequence (whole entry): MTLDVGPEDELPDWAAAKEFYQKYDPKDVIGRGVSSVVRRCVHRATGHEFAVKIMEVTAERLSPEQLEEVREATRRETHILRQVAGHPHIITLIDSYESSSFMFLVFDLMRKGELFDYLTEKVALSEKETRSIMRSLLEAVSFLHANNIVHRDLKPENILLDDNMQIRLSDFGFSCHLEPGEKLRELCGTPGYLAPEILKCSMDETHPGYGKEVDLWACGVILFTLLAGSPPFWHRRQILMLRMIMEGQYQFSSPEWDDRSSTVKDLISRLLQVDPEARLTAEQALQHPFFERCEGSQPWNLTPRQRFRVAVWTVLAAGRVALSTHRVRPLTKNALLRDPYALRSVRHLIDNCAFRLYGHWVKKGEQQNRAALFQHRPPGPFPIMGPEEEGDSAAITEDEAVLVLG
Briefly: Inhibition of human PHKG2 assessed as residual activity at 1 uM using RBER-CHKtide as substrate in presence of 33P-ATP by ProQinase assay relative to control.

Assay [6] deals with Non-receptor tyrosine-protein kinase TYK2 (Homo sapiens) (UniProt P29597). In words: Inhibition of TYK2 JH2 domain (unknown origin) assessed as remaining activity at 1 uM by Kinome scan method relative to control.
Assay [7] deals with Mitogen-activated protein kinase kinase kinase 6 (Homo sapiens) (UniProt O95382). Briefly: Inhibition of ASK2 (unknown origin) assessed as remaining activity at 1 uM by Kinome scan method relative to control.
Assay [8] has as its target Tyrosine-protein kinase FRK (Homo sapiens) (UniProt P42685). Briefly: Inhibition of human FRK assessed as residual activity at 1 uM using PolyEY as substrate in presence of 33P-ATP by ProQinase assay relative to control.
For assay [9], the system named is Tyrosine-protein kinase ABL1 (Homo sapiens), P00519 [M351T]. Briefly: Inhibition of human ABL1 M351T mutant assessed as residual activity at 1 uM using Poly(Ala,Glu,Lys,Tyr)6:2:5:1 as substrate in presence of 33P-ATP by ProQinase assay relative to control.
The target of assay [10] is Serine/threonine-protein kinase TNNI3K (Homo sapiens) (UniProt Q59H18). Briefly: Inhibition of TNNI3K (unknown origin) assessed as remaining activity at 1 uM by Kinome scan method relative to control.
Assay [11] deals with RAC-alpha serine/threonine-protein kinase (Homo sapiens) (UniProt P31749). In words: Inhibition of AKT1 (unknown origin) assessed as remaining activity at 1 uM by Kinome scan method relative to control.
Assay [12] has as its target Serine/threonine-protein kinase VRK1 (Homo sapiens) (UniProt Q99986). In words: Inhibition of human VRK1 assessed as residual activity at 1 uM using RBER-CHKtide as substrate in presence of 33P-ATP by ProQinase assay relative to control.
For assay [13], the target named is Death-associated protein kinase 2 (Homo sapiens) (UniProt Q9UIK4). In words: Inhibition of human DAPK2 assessed as residual activity at 1 uM using RB-S6P as substrate in presence of 33P-ATP by ProQinase assay relative to control.
The target in assay [14] is Platelet-derived growth factor receptor alpha (Homo sapiens) (UniProt P16234). In words: Inhibition of PDGFRalpha (unknown origin) assessed as remaining activity at 1 uM by Kinome scan method relative to control.
Assay [15] concerns the target MAP kinase-interacting serine/threonine-protein kinase 1 (Homo sapiens) (UniProt Q9BUB5). Briefly: Inhibition of human MKNK1 assessed as residual activity at 1 uM using RB-S6P as substrate in presence of 33P-ATP by ProQinase assay relative to control.
In assay [16] the test system is Receptor-type tyrosine-protein kinase FLT3 (Homo sapiens), P36888 [N841I]. In words: Inhibition of FLT3 N841I mutant (unknown origin) assessed as remaining activity at 1 uM by Kinome scan method relative to control.
The target of assay [17] is Protein kinase C delta type (Homo sapiens) (UniProt Q05655). In words: Inhibition of human PKCdelta assessed as residual activity at 1 uM using 3xChocktide-PKC(19-31) as substrate in presence of 33P-ATP by ProQinase assay relative to control.
The target of assay [18] is Receptor tyrosine-protein kinase erbB-4 (Homo sapiens) (UniProt Q15303). In words: Inhibition of ERBB4 (unknown origin) assessed as remaining activity at 1 uM by Kinome scan method relative to control.
The test system of assay [19] is Tyrosine-protein kinase ABL1 (Homo sapiens), P00519 [E255K]. Briefly: Inhibition of human ABL1 E255K mutant assessed as residual activity at 1 uM using Poly(Ala,Glu,Lys,Tyr)6:2:5:1 as substrate in presence of 33P-ATP by ProQinase assay relative to control.
Assay [20] has as its target Serine/threonine-protein kinase PAK 3 (Homo sapiens) (UniProt O75914). Briefly: Inhibition of PAK3 (unknown origin) assessed as remaining activity at 1 uM by Kinome scan method relative to control.
Assay [21] deals with STE20-like serine/threonine-protein kinase (Homo sapiens) (UniProt Q9H2G2). Briefly: Inhibition of human SLK assessed as residual activity at 1 uM using RB-S6P as substrate in presence of 33P-ATP by ProQinase assay relative to control.
Assay [22] can be described thus: Anti-inflammatory activity against human derived high respond PBMC cells assessed as inhibition in stimulated IL-8 cytokine release incubated for 2 hrs in the presence of LPS/SEB/aCD28 by Luminex based sandwich immunoassay. It counts as functional, cell-based.
Assay [23] concerns the target Mitogen-activated protein kinase kinase kinase 9 (Homo sapiens) (UniProt P80192). Briefly: Inhibition of MLK1 (unknown origin) assessed as remaining activity at 1 uM by Kinome scan method relative to control.

Chain of RAC-alpha serine/threonine-protein kinase (Homo sapiens) (P31749 whole entry): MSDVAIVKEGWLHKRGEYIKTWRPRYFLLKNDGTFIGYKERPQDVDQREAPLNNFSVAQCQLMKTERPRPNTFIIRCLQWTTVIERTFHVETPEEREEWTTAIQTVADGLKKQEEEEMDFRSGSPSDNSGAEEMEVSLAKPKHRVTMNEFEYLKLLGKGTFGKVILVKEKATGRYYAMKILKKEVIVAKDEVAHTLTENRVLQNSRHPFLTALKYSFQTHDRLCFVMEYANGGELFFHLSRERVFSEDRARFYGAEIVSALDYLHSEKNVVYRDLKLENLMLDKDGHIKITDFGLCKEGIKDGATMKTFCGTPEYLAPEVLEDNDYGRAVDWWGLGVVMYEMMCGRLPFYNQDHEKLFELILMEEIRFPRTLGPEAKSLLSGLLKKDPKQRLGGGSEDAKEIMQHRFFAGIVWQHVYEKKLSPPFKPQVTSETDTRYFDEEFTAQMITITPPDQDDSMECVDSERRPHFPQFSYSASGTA
Chain of Receptor tyrosine-protein kinase erbB-4 (Homo sapiens) (Q15303 whole entry): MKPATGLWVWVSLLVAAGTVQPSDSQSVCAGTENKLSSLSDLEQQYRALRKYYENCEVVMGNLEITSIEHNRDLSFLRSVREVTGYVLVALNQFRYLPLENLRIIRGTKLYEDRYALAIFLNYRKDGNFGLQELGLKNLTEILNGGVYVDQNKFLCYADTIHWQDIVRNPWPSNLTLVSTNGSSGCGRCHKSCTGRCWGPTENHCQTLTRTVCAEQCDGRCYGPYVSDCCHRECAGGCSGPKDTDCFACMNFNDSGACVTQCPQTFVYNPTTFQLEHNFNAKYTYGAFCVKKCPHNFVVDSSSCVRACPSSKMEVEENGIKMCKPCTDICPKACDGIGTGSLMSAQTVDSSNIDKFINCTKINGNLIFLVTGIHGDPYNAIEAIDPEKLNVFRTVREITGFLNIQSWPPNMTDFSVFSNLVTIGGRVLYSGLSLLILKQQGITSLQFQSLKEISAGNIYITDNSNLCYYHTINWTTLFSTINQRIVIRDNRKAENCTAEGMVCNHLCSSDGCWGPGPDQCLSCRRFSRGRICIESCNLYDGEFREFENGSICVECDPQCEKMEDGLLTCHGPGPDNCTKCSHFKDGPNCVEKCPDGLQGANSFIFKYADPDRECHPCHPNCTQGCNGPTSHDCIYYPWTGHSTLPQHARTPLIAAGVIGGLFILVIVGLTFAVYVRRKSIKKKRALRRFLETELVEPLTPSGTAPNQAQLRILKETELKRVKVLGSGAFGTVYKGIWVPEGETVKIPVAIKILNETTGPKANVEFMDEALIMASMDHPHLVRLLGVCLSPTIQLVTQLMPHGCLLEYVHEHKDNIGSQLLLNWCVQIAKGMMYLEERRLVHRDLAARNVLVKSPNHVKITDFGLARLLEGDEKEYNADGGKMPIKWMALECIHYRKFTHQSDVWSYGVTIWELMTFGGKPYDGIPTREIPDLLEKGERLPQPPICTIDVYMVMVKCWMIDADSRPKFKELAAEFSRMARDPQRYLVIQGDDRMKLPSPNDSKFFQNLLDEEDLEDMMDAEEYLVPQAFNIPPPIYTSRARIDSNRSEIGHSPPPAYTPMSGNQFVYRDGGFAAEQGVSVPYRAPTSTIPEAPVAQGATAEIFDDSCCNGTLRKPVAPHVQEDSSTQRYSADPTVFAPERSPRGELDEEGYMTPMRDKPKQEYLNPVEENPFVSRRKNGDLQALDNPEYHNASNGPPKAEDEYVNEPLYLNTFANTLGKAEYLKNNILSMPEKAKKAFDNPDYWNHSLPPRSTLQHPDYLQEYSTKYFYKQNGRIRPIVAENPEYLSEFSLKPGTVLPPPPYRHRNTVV
Chain of Non-receptor tyrosine-protein kinase TYK2 (Homo sapiens) (P29597 whole entry, the tested form may be a part): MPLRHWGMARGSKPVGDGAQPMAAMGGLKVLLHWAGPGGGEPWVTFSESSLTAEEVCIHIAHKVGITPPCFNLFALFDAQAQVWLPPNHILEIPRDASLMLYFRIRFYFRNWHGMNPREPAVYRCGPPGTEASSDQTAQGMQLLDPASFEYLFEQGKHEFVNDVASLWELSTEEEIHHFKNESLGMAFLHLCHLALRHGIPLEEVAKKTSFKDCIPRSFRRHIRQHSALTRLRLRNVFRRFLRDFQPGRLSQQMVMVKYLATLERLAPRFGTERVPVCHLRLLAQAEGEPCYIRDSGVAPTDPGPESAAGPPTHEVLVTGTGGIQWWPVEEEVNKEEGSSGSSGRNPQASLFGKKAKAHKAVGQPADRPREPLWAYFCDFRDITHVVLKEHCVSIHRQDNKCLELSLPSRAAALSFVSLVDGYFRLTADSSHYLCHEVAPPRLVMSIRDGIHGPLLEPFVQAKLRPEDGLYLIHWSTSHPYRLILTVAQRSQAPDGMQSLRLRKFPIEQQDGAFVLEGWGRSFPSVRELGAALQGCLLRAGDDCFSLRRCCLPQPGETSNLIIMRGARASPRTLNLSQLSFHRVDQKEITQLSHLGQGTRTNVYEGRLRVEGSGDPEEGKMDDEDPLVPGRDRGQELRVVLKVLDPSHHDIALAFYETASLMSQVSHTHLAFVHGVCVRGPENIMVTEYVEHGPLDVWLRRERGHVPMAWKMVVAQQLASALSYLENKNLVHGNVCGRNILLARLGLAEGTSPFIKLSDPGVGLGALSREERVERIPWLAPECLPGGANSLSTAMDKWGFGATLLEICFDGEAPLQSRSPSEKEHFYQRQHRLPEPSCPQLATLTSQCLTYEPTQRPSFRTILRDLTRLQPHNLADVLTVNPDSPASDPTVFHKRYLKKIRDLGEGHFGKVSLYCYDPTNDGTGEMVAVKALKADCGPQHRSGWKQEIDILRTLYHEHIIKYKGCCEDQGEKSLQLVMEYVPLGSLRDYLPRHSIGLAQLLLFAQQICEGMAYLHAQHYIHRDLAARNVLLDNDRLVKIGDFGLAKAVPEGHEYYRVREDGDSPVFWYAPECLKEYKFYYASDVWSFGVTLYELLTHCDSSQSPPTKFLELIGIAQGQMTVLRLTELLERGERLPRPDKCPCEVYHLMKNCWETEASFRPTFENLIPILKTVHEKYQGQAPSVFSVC
Chain of Fibroblast growth factor receptor 3 (Homo sapiens) (P22607 23-806 limits assumed): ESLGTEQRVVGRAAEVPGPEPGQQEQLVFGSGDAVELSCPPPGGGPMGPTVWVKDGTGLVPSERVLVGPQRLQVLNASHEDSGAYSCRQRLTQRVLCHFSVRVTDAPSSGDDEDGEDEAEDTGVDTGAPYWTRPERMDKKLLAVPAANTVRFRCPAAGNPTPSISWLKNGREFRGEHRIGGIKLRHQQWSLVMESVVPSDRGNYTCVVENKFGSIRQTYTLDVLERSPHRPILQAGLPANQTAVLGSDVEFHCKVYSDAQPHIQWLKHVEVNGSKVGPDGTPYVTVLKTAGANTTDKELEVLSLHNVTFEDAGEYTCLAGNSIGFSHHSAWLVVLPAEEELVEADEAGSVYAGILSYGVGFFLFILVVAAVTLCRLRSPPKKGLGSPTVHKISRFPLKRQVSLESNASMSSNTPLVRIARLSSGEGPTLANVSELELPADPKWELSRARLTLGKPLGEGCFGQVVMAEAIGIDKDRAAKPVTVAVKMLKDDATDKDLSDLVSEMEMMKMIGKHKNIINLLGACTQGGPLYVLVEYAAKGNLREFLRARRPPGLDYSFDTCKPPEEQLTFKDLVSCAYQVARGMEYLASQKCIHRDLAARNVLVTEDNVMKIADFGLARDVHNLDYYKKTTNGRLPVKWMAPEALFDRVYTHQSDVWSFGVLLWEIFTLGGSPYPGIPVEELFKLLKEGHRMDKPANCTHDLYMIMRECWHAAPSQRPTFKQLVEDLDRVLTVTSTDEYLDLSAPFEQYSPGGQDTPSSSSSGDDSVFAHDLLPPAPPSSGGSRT
Chain of Serine/threonine-protein kinase TNNI3K (Homo sapiens) (Q59H18 whole entry): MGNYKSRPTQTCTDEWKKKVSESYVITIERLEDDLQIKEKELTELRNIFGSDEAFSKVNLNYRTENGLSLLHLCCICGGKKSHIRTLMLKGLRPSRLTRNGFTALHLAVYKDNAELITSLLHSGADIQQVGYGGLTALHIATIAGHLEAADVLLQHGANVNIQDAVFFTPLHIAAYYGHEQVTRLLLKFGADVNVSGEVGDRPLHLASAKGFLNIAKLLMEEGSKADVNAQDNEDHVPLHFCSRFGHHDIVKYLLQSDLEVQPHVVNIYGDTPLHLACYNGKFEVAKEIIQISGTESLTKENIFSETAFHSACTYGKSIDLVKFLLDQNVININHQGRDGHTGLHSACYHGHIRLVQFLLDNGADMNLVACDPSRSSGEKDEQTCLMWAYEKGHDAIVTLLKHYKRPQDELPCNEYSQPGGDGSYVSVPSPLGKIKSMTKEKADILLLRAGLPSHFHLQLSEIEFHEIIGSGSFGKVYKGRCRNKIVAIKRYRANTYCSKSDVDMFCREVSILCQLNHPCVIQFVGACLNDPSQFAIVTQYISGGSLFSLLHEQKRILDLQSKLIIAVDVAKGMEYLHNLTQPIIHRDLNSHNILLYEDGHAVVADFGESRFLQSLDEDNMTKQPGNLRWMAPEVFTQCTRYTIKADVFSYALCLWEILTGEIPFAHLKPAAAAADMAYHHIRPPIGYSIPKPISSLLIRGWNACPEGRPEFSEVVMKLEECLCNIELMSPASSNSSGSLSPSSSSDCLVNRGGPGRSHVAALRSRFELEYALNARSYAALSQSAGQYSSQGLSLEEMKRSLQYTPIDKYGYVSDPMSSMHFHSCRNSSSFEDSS
Chain of Serine/threonine-protein kinase VRK1 (Homo sapiens) (Q99986 whole entry): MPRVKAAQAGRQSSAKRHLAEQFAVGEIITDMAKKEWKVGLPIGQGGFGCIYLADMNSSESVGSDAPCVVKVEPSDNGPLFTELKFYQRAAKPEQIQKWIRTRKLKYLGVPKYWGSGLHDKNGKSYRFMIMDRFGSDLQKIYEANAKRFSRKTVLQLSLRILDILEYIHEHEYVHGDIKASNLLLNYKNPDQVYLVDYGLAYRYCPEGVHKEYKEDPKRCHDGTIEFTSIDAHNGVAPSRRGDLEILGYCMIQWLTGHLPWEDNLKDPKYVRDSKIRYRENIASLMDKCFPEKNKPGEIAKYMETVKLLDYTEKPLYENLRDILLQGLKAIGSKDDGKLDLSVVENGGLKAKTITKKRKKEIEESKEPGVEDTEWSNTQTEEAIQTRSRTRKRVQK

As to `O=C1c2ccc(Nc3ccc(F)cc3F)cc2CCc2ccc(OC[C@H](O)CO)cc21` [Skepinone-L], the Activity in assay [1] is 102%; in assay [2], 125%; in assay [3], 104%; in [4] it was 85%; in [5], 73%; in assay [6], 100%. In addition, the Activity in [7] was determined as 100%; in assay [8], 111%; in [9], 102%; in assay [10], 90%; in assay [11] it was 100%; in [12], 88%. For the same compound, the Activity in [13] was found to be 88%; in [14], 100%; in assay [15], 69%; in assay [16], 96%; in assay [17], 104%; in [18] it was 97%. Further, the Activity in [19] was 105%; in assay [20], 100%; in [21], 39%; in assay [23], 100%. The IC50 in [22] was determined as 90 nM.

By IC50 is commonly meant the concentration at which inhibition is half-maximal.

These data come from ChEMBL document CHEMBL5696441 (Nat Chem Biol, 2011).
